According to patent EP0204284A2, “A novel lipase” (SAPPORO BREWERIES LIMITED, priority 1985, dated 1986):
Entries after “also recorded” stand apart in the source; their conditions may differ.

tested on: lipase; assay: not given; settings: Biochim. Biophys. Acta 488, 353-358 (1977); cited from earlier work

Compound	Activation and deactivation (in words)
[Cl][Fe]([Cl])[Cl] [FeCl3, iron (III) chloride]	Almost no deactivation
[Cl][Hg][Cl] [HgCl2, mercury (II) chloride]	Almost no deactivation

tested on: lipase; assay: Influence of surface active agents on the enzymatic activity (residual activity); format: biochemical, Pseudomonas fragi 22.39B; settings: 9:1 by volume mixture of 10 U/ml enzyme solution and 4% aqueous solution of surface active agent, 25°C, 30 minutes
Protocol: Thus, the chemical and physical properties, by which the inventive novel lipase is characterized, are as described below.
Similarly, the influence of surface active agents on the enzymatic activity was examined by keeping a 9:1 by volume mixture of a 10 U/ml solution of the enzyme and a 4% aqueous solution of the surface active agent at 25°C for 30 minutes followed by the determination of the residual activity of the enzyme in the solution.

Compound	Residual activity, % [%]
CCCCCCCCCCCCCCCC[N+](C)(C)C.[Br-] [Cetyl trimethyl ammonium bromide]	12
CCCCCCCCCCCC[N+](C)(C)C.[Cl-] [Dodecyl trimethyl ammonium chloride]	35
CCCCCCCC/C=C\CCCCCCCC(=O)OCCOCC(OCCO)C1OCC(OCCO)C1OCCO (stereo not drawn) [Polyoxyethylene sorbitan monooleate]	115
CCCCCCCCCCCC[N+](C)(C)C.[Br-] [n-Dodecyl trimethyl ammonium bromide]	46
Polyoxyethylene (10) octyl phenyl ether	105
Polyoxyethylene (10) oleyl ether	55
Sorbitan monooleate [Sorbitan monooleate (Span 80)]	56

same assay, conditions: summary statement

Compound	Effect of surface active agents on the enzyme (in words)
CCCCCCCCCCCCCCCC[N+](C)(C)C.[Br-] [Cetyl trimethyl ammonium bromide]	deactivated
Polyoxyethylene (10) octyl phenyl ether	somewhat increased

tested on: lipase; assay: not given; format: biochemical, Pseudomonas fragi 22.39B; settings: 1000 µM
Protocol: Thus, the chemical and physical properties, by which the inventive novel lipase is characterized, are as described below. The activity of the enzyme has been determined by the PVA emulsion method proposed by Yamada, et al. and described in Journal of the Agricultural Chemical Society of Japan, volume 36, page 860 (1962) with some modifications if not mentioned otherwise, taking an amount of the enzyme liberating a micro- equivalent of a fatty acid for 1 minute as one unit (U) (see Japanese Patent Publication 56-28517).
The influence of metal ions on the enzymatic actvity was examined by keeping a 9:1 by volume mixture of a 5U/ml solution of the enzyme and a 10 mM solution of the metal ions at 25°C for 30 minutes followed by the determination of the residual activity of the enzyme in the solution. No calcium chloride was contained in the reaction mixture.

Compound	Residual activity, % [%]
NaCl	98.0

same assay, conditions: 9:1 by volume mixture of 5U/ml enzyme solution and 10 mM metal ion solution, 25°C, 30 minutes; no calcium chloride

Compound	Residual activity, % [%]
[Cl][Ag] [AgCl]	93.6
[Cl][Al]([Cl])[Cl] [AlCl3]	93.6
[Ba+2].[Cl-].[Cl-] [BaCl2]	92.7
[Ca+2].[Cl-].[Cl-] [CaCl2]	105.5
[Cl-].[Cl-].[Co+2] [CoCl2]	86.6
[Cl][Cu][Cl] [CuCl2]	90.8
[Cl][Fe][Cl] [FeCl2, iron (II) chloride]	36.7
[Cl][Fe]([Cl])[Cl] [FeCl3, iron (III) chloride]	33.0
[Cl][Hg][Cl] [HgCl2, mercury (II) chloride]	83.5
[Cl-].[Cl-].[Mg+2] [MgCl2]	97.2
[Cl][Mn][Cl] [MnCl2]	81.7
[Cl][Ni][Cl] [NiCl2]	98.9
[Cl][Pb][Cl] [PbCl2]	78.0
[Cl][Sn][Cl] [SnCl2]	79.8
[Cl-].[Cl-].[Sr+2] [SrCl2]	92.7
[Cl-].[Cl-].[Zn+2] [ZnCl2, zinc chloride]	34.9
KCl	98.0
LiCl	97.5

same assay, conditions: summary statement

Compound	Effect of metal ions on the enzyme (in words)
[Cl][Fe][Cl] [FeCl2, iron (II) chloride]	Deactivated
[Cl][Fe]([Cl])[Cl] [FeCl3, iron (III) chloride]	Deactivated
[Cl-].[Cl-].[Zn+2] [ZnCl2, zinc chloride]	Deactivated

same assay, conditions: summary statement; listed as Zn^2+

Compound	Effect of metal ions on the enzyme (in words)
[Cl-].[Cl-].[Zn+2] [ZnCl2, zinc chloride]	deactivated; also recorded: deactivating effect

tested on: lipase; assay: not given; settings: J. Ferment. Technol. 49, 128 (1971); Japanese Patent Publication 50-25553; cited from earlier work

Compound	Substrate specificity (in words)
CCCC(=O)OC [Methyl butyrate]	little active
CCCC(=O)OCC(COC(=O)CCC)OC(=O)CCC [Tributyrin]	Active
CCCCCCCCCCCCCC(=O)OCC(COC(=O)CCCCCCCCCCCCC)OC(=O)CCCCCCCCCCCCC [trimyristin]	Active

tested on: lipase; assay: Substrate specificity: relative rate of decomposition of esters, oils and fats (shaking method); format: biochemical, Pseudomonas fragi 22.39B; settings: ester as the substrate; triolein as the reference (100); shaking method, pH 9.0, 37°C, 30 minutes
Source text: The enzyme is active for the decomposition of the substrate, such as various kinds of esters and naturally occurring oils and fats. Tables 1-1 and 1-2 given below give the relative rate of decomposition of esters (Table 1-1) and naturally occurring oils and fats (Table 1-2) in % taking triolein and olive oil, respectively, as the reference.
Different from the above mentioned standard procedure of the PVA emulsion method, the results tabulated in Tables 1-1 and 1-2 were obtained by the shaking method according to the conditions and procedures described below.
The solution described above was taken in an Erlenmeyer flask of 100 ml capacity and shaken for 30 minutes in a thermostat at 37°C at a rate of 90 rpm along an 8-shaped line. After completion of the above mentioned reaction time, 20 ml of a 1:1 mixture of acetone and ethyl alcohol were added to the flask and the resultant solution was titrated within a length of time with a 0.05N aqueous solution of sodium hydroxide using phenol phthalein as the indicator.

Compound	Relative rate of decomposition, % [%]
CCCCCCCC/C=C\CCCCCCCC(=O)OCCCC [Butyl oleate]	95
CCCCCCCC/C=C\CCCCCCCC(=O)OCC [Ethyl oleate]	59
CCCC(=O)OC [Methyl butyrate]	23
CCCCCCCC/C=C\CCCCCCCC(=O)OC [Methyl oleate]	87
CCCCCCCC/C=C\CCCCCCCC(=O)OCCOCC(OCCO)C1OCC(OCCO)C1OCCO (stereo not drawn) [Polyoxyethylene sorbitan monooleate]	50
CC(=O)OCC(COC(C)=O)OC(C)=O [Triacetin]	108
CCCC(=O)OCC(COC(=O)CCC)OC(=O)CCC [Tributyrin]	243
Sorbitan monolaurate [Sorbitan monolaurate (Span 20)]	66
Sorbitan monooleate [Sorbitan monooleate (Span 80)]	36

same assay, conditions: summary statement

Compound	Activity of the enzyme for the decomposition of the substrate (in words)
CCCCCCCC/C=C\CCCCCCCC(=O)OCCCC [Butyl oleate]	Active; also recorded: good activity
CC(=O)OCC(COC(C)=O)OC(C)=O [Triacetin]	highly active
CCCC(=O)OCC(COC(=O)CCC)OC(=O)CCC [Tributyrin]	highly active

same assay, conditions: summary statement; listed as methyl - oleate

Compound	Activity of the enzyme for the decomposition of the substrate (in words)
CCCCCCCC/C=C\CCCCCCCC(=O)OC [Methyl oleate]	good activity

same assay, conditions: summary statement; listed as methyl oleate

Compound	Activity of the enzyme for the decomposition of the substrate (in words)
CCCCCCCC/C=C\CCCCCCCC(=O)OC [Methyl oleate]	Active

tested on: lipase; assay: not given; settings: Biochim. Biophys. Acta 488, 353-358 (1977); cited from earlier work; remark: another data set of the same source

Compound	Substrate specificity (in words)
CCCCCCCCCCCCCCCC(=O)OCC(COC(=O)CCCCCCCCCCCCCCC)OC(=O)CCCCCCCCCCCCCCC [tri- palmitin]	Active
CCCCCC(=O)OCC(COC(=O)CCCCC)OC(=O)CCCCC [tricaproin]	Active

target: lipase (Pseudomonas aeruginosa, UniProt P26876); assay: not given; settings: Biochim. Biophys. Acta 206, 380-391 (1970); cited from earlier work
Sequence (P26876 27-311): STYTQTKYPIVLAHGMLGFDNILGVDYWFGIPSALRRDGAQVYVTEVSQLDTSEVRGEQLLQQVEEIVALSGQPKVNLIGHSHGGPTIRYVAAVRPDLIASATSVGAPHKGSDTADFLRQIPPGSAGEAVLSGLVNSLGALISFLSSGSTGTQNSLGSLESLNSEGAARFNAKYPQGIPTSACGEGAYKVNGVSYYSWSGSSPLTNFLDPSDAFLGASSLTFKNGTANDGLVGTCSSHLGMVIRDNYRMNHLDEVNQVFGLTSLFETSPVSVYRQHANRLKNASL

Compound	Substrate specificity (in words)
CCCC(=O)OCC(COC(=O)CCC)OC(=O)CCC [Tributyrin]	Active

target: T1, lipase (Pseudomonas fragi, UniProt P08658); assay: not given; settings: J. Gen. Microbiol. 48, 317-328 (1967); cited from earlier work
T1 sequence (P08658 1-293): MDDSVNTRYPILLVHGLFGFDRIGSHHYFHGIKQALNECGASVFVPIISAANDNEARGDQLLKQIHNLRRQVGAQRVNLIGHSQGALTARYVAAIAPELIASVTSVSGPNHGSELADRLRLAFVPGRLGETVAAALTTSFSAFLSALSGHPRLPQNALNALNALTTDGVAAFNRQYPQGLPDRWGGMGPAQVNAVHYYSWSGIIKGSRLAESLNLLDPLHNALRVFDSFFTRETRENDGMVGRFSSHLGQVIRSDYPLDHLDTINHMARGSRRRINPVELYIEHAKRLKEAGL

Compound	Substrate specificity (in words)
CCCC(=O)OC [Methyl butyrate]	inactive
CCCCCCCC/C=C\CCCCCCCC(=O)OC [Methyl oleate]	inactive
CCCC(=O)OCC(COC(=O)CCC)OC(=O)CCC [Tributyrin]	Active

tested on: lipase; assay: not given; settings: J. Ferment. Technol. 49, 128 (1971); Japanese Patent Publication 50-25553; cited from earlier work; remark: another data set of the same source

Compound	Activation and deactivation (in words)
[Cl][Fe]([Cl])[Cl] [FeCl3, iron (III) chloride]	Inhibited
[Cl][Hg][Cl] [HgCl2, mercury (II) chloride]	Inhibited
copper sulfate	Inhibited
